Where two headings read alike, the source gives them in different places.
Columns and labels:
[1] = tested on: human ovarian cancer cell line SK-OV-3; assay: SK-OV-3 xenograft efficacy study in SCID mice; format: in vivo; settings: after 19 days treatment; DOX only 3.3 mg/kg i.v. weekly
Description: In a fifth efficacy study, we generated xenografts of the human ovarian cancer cell line SK-OV-3, a cell line considered doxorubicin-resistant, by bilateral subcutaneous (s.c.) injection of 1×10^7 tumor cells to establish localized tumors in 6-8 week old female SCID mice. Using rifabutin co-administered with DOX, in vivo efficacy was assessed. […] Cycles of Dox or Dox+rifabutin were given once a week for 4 cycles. This cyclical dosing scheme of mouse models has precedent in the literature and is intended to mimic the cycles of DOXIL® (Centocor Ortho Biotech Products, LP, Raritan, N.J.) given in the clinic. Rifabutin was administered on the day of each DOX treatment and by gavage. Mouse body weight and tumor size were monitored.

lymphoma cell line G3 = assay: Cell growth assay (resazurin fluorescence) on CHOP-resistant G3 NHL cells; format: cell-based, human; settings: for IC50: Homo sapiens
How it was run: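 CHOP-resistant G3 NHL cells grown five days in RPMI medium were counted by haemocytometer and set to 625,000 cells/ml. They were then added to plates holding test drug, first dissolved in 100% DMSO and diluted in 0.1M PBS to 0.5% final DMSO. Plates incubated 96 hours at 37° C. and 5% CO2. Resazurin at 20 μg/ml was added for a further 24 hours, and plates were read on a BMG Polarstar at 573-605.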

[2] = tested on: CHOP-sensitive NHL cell line CRL2631; assay: Cell growth assay (resazurin) on CHOP-sensitive CRL2631 NHL cells; format: cell-based, human; settings: CRL2631; for IC50: Homo sapiens
[3] = after administration; cited from earlier work
[4] = tested on: T lymphoblastoid leukemia MOLT-4; assay: Cell growth assay on MOLT-4 cells; format: cell-based; settings: for IC50: Homo sapiens
Description: Compositions were tested on CHOP-resistant G3 NHL cells that had been cultivated in RPMI medium for five days. Prior to assay, the cells were counted by haemocytometer and cell concentration standardized to 625,000 cells/ml. Test drugs were solubilized in 100% DMSO and then diluted to final assay concentration with 0.1M phosphate buffered saline (PBS) and a final DMSO concentration of 0.5%. Cells were added to assay plates containing the test drugs (rifabutin+148 ng/ml, 74 ng/ml, 37 ng/ml, or 0 ng/ml doxorubicin) and allowed to incubate for 96 hours at 37° C. and 5% CO2. The metabolic dye rezasurin was added to the wells of the assay plate at a final concentration of 20 μg/ml and the plates were incubated for an additional 24 hours. The plates were then read in a BMG Polarstar plate reader at wavelength (573-605) and the data plotted as OD versus increasing dilutions (i.e. decreasing total amounts) of rifabutin derivative concentration.
Additional cell lines used include: ovarian cancer OVCAR-8, T lymphoblastoid leukemia MOLT-4, dexamethasone-resistant multiple myeloma MM.1R, myeloid leukemia cells HL-60, osteosarcoma cells U-2 OS, and myeloma RPMI 8226.

[5] = tested on: G3 CHOP-resistant NHL cells; settings: fourth study; doxorubicin only group
Description: In a first efficacy study, 6-8 week old female SCID mice (7 mice per treatment arm) were injected subcutaneously on both flanks with 1×10^7 G3 CHOP-resistant NHL cells. Once palpable tumors (about […] size) appeared, therapies (CHOP or CHOP+rifabutin) were started. CHOP was administered at the maximum tolerated dose (cyclophosphamide, 40 mg/kg i.v.; doxorubicin, 3.3 mg/kg i.v.; vincristine, 0.5 mg/kg i.v.; and prednisone, 0.2 mg/kg orally daily for 5 d) weekly for 3 weeks. Rifabutin in an amount of 100 mg/kg was administered on the day of each CHOP treatment and 24-hours later by gavage. Mouse body weight and tumor size were monitored every two days and tumor size measured by caliper. The tumor volume formula (L*W*W)/2 was used to calculate tumor mass.
A second efficacy study was conducted where mice were treated before the appearance of palpable tumors. In that experiment, one week after transplantation of CHOP-resistant G3 cells, one group (7 mice) was treated with CHOP-only and a second group (8 mice) was treated with CHOP+rifabutin.
A third study was conducted in which mice injected with CHOP-resistant G3 cells received reduced dosages of CHOP in combination with 33 mg/kg rifabutin. CHOP+rifabutin was administered weekly beginning one week post-inoculation. Control mice were given no CHOP or rifabutin.
SCID mice were injected with CHOP-resistant G3 cells in the same manner as the first efficacy study above. Treatments began 2 weeks post-inoculation and were administered twice weekly.

[6] = tested on: multi-drug resistant ovarian cancer cell line NCI/ADR-RES; assay: Cell growth assay on NCI/ADR-RES cells; format: cell-based; settings: ADR-RES; for IC50: Homo sapiens, NCI/ADR-RES
[7] = therapeutic drug alone, read-out: IC50
[8] = therapeutic drug with Rifabutin, read-out: IC50 (μM) with Rifabutin

COc1cccc2c1C(=O)c1c(O)c3c(c(O)c1C2=O)C[C@@](O)(C(=O)CO)C[C@@H]3O[C@H]1C[C@H](N)[C@H](O)[C@H](C)O1 [Doxorubicin, doxorubicin]
average tumor volume [1]: 587 mm^3
IC50 (lymphoma cell line G3; analog alone, lymphoma cell line G3, read-out: IC50): 2.36 µM
IC50 (lymphoma cell line G3; therapeutic drug with Rifabutin, G3, read-out: IC50 (μM) with Rifabutin): 0.25 µM
Fold increase in potency (lymphoma cell line G3; with vs without Rifabutin, G3): 9.4 fold
IC50 [2, 7]: 0.35 µM
IC50 [2, 8]: 0.12 µM
Fold increase in potency ([2]; with vs without Rifabutin): 2.9 fold
time of maximal tissue absorption [3]: 48 h
IC50 [4, 7]: 0.03 µM
IC50 [4, 8]: 0.01 µM
Fold increase in potency ([4]; with vs without Rifabutin): 3 fold
mean lifespan [5]: 34.6
median lifespan [5]: 33
times as likely to die before those treated with doxorubicin+RTI-81 [5]: 10.37 times
IC50 [6, 7]: > 32 µM
IC50 [6, 8]: 6.59 µM
Fold increase in potency ([6]; with vs without Rifabutin): >4.9 fold
